# Data taken from patent US9434725B2, “5-azaindazole compounds and methods of use” (priority 2012, dated 2016).
# Like-named read-outs stand apart in the source and are kept apart here.
# Experiments:
# Format in all cases: biochemical
# PIM3 = PIM3 (Homo sapiens (Human), UniProt Q86V86); experiment: Pim kinase binding activity, Caliper LC3000 microfluidic peptide phosphorylation assay, PIM3; conditions: 10 μM ATP, 90 min, room temperature; read-out: PIM3 LC3K (KI)
# Method: (§1) A fluorescent-labeled Pim-specific peptide substrate, was custom synthesized by American Peptide Company (Sunnyvale, Calif.). Reaction Buffer contained 10 mM HEPES, pH 7.2, 10 mM MgCl2, 0.01% Tween 20, 2 mM DTT. Termination Buffer contained 190 mM HEPES, pH 7.2, 0.015% Brij-35, 0.2% Coating Reagent 3 (Caliper Life Sciences, Hopkinton, Mass.), 20 mM EDTA. Separation Buffer contained 100 mM HEPES, pH 7.2, 0.015% Brij-35, 0.1% Coating Reagent 3, 1:200 Coating Reagent 8 (Caliper Life Sciences, Hopkinton, Mass.), 10 mM EDTA and 5% DMSO.
# (§2) PIM reactions were carried out in a final volume of 10 μL per well in a 384-well plate. […] After 90 minutes of incubation at room temperature, the phosphorylation reaction was stopped by the addition of 10 μL Termination Buffer. The product and substrate in each independent reaction were separated on a 12-sipper microfluidic chip (Caliper Life Sciences, Hopkinton, Mass.) run on a Caliper LC3000® (Caliper Life Sciences, Hopkinton, Mass.). The separation of product and substrate was optimized by choosing voltages and pressure using Caliper's Optimizer software (Hopkinton, Mass.). […] Substrate conversion was calculated from the electropherogram using HTS Well Analyzer software (Caliper Life Sciences, Hopkinton, Mass.). Ki values for the test compound were calculated.
# PIM2 = PIM2 (Homo sapiens (Human), UniProt Q9P1W9); experiment: Pim kinase binding activity, Caliper LC3000 microfluidic peptide phosphorylation assay, PIM2; conditions: 10 μM ATP, 90 min, room temperature; read-out: PIM2 LC3K (KI)
# Method: as §1, §2
# PIM1 = PIM1 (Homo sapiens (Human), UniProt P11309); experiment: biochemical
# Method: as §1, §2
# [1] = 10 μM ATP, 90 min, room temperature, read-out: PIM1 LC3K (KI)
# PIM1, sequence (P11309 whole entry): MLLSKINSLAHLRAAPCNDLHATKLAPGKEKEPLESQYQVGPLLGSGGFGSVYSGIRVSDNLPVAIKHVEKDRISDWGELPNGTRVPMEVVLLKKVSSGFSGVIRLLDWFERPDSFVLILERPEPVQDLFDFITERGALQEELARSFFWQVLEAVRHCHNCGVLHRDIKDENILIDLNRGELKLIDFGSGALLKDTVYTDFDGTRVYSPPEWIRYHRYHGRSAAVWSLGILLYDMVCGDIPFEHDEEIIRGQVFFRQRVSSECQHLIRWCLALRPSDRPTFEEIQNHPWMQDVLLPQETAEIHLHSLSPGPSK
# PIM2, sequence (Q9P1W9 whole entry): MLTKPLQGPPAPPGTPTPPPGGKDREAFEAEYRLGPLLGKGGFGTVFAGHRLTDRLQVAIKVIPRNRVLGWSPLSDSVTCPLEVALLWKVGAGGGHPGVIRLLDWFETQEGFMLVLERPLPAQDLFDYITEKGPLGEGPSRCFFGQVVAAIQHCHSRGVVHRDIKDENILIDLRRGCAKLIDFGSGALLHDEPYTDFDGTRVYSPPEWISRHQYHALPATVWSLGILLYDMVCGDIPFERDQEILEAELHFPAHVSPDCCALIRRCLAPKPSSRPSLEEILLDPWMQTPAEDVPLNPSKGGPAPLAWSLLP
Structure (SMILES),Ki (PIM3) [nM],Ki (PIM2) [nM],Ki (PIM1; [1]) [nM],Ki (PIM1) [nM]
"Cc1ccc(-n2ncc3cnc(-c4cnn(CC(F)(F)F)c4)cc32)nc1N1CCNC[C@H](O)C1 (single isomer, unassigned) [Compound 263]",0.536,6.51,0.253,–
"CCn1cc(-c2cc3c(cn2)cnn3-c2cccc(N3CCN[C@@H](C)C3)n2)cn1 [Compound 126, (S)-6-(1-ethyl-1H-pyrazol-4-yl)-1-(6-(3-methylpiperazin-1-yl)pyridin-2-yl)-1H-pyrazolo[4,3-c]pyridine]",0.349,7.36,0.349,–
"CCn1cc(-c2cc3c(cn2)cnn3-c2cccc(N3CC[C@H](O)C3)n2)cn1 [Compound 127, (S)-1-(6-(6-(1-ethyl-1H-pyrazol-4-yl)-1H-pyrazolo[4,3-c]pyridin-1-yl)pyridin-2-yl)pyrrolidin-3-ol]",1.31,–,3.04,–
"CCn1cc(-c2cc3c(cn2)cnn3-c2cccc(N3CC[C@@H](O)C3)n2)cn1 [Compound 128, (R)-1-(6-(6-(1-ethyl-1H-pyrazol-4-yl)-1H-pyrazolo[4,3-c]pyridin-1-yl)pyridin-2-yl)pyrrolidin-3-ol]",4.39,–,7.22,–
"CCn1cc(-c2cc3c(cn2)cnn3-c2cccc(N3CCNC(C)(C)C3)n2)cn1 [Compound 131, 1-(6-(3,3-dimethylpiperazin-1-yl)pyridin-2-yl)-6-(1-ethyl-1H-pyrazol-4-yl)-1H-pyrazolo[4,3-c]pyridine]",0.385,15.9,0.58,–
"CCn1cc(-c2cc3c(cn2)cnn3-c2cccc(N3CCC[C@@H](N)C3)n2)cn1 [Compound 134, (R)-1-(6-(6-(1-ethyl-1H-pyrazol-4-yl)-1H-pyrazolo[4,3-c]pyridin-1-yl)pyridin-2-yl)piperidin-3-amine]",0.473,10.8,0.951,–
"CCn1cc(-c2cc3c(cn2)cnn3-c2cccc(N3CC[C@H](N)C3)n2)cn1 [Compound 135, (S)-1-(6-(6-(1-ethyl-1H-pyrazol-4-yl)-1H-pyrazolo[4,3-c]pyridin-1-yl)pyridin-2-yl)pyrrolidin-3-amine]",0.84,11.1,2.12,–
"CCn1cc(-c2cc3c(cn2)cnn3-c2cccc(N3CC[C@@H](N)C3)n2)cn1 [Compound 136, (R)-1-(6-(6-(1-ethyl-1H-pyrazol-4-yl)-1H-pyrazolo[4,3-c]pyridin-1-yl)pyridin-2-yl)pyrrolidin-3-amine]",0.615,17.3,2.05,–
"CCn1cc(-c2cc3c(cn2)cnn3-c2cccc(N3CCCC(N)CC3)n2)cn1 (stereo not drawn) [Compound 140, 1-(6-(6-(1-ethyl-1H-pyrazol-4-yl)-1H-pyrazolo[4,3-c]pyridin-1-yl)pyridin-2-yl)azepan-4-amine]",0.454,13.4,1.04,–
"Cc1cncc(-c2cc3c(cn2)cnn3-c2cccc(N3CCC[C@H](N)C3=O)n2)n1 [Compound 225, (3S)-3-amino-1-[6-[6-(6-methylpyrazin-2-yl)pyrazolo[4,3-c]pyridin-1-yl]-2-pyridyl]piperidin-2-one]",0.267,4.29,–,–
"Cc1cncc(-c2cc3c(cn2)cnn3-c2cccc(C3CNCCC3(F)F)n2)n1 (stereo not drawn) [Compound 259, 1-[6-(4,4-difluoro-3-piperidyl)-2-pyridyl]-6-(6-methylpyrazin-2-yl)pyrazolo[4,3-c]pyridine]",–,0.242,0.053,–
"Cc1cncc(-c2cc3c(cn2)cnn3-c2ccc(=O)n([C@@H]3CCCNC3)n2)n1 [Compound 290, (R)-6-(6-(6-methylpyrazin-2-yl)-1H-pyrazolo[4,3-c]pyridin-1-yl)-2-(piperidin-3-yl)pyridazin-3(2H)-one]",–,43.2,–,16.3
"CNc1cccc(-n2ncc3cnc(-c4cncc(C)n4)cc32)n1 [Compound 297, N-methyl-6-(6-(6-methylpyrazin-2-yl)-1H-pyrazolo[4,3-c]pyridin-1-yl)pyridin-2-amine]",0.235,3.43,–,–
"Cc1cncc(-c2cc3c(cn2)cnn3-c2cccc(C(=O)N3CCC[C@H](N)C3)n2)n1 [Compound 302, (S)-(3-aminopiperidin-1-yl)(6-(6-(6-methylpyrazin-2-yl)-1H-pyrazolo[4,3-c]pyridin-1-yl)pyridin-2-yl)methanone]",20.1,183,–,–
"Cc1cncc(-c2cc3c(cn2)cnn3-c2cccc(C(=O)N3CCC[C@@H](N)C3)n2)n1 [Compound 303, (R)-(3-aminopiperidin-1-yl)(6-(6-(6-methylpyrazin-2-yl)-1H-pyrazolo[4,3-c]pyridin-1-yl)pyridin-2-yl)methanone]",15.6,193,–,–
"c1ccc(-n2ncc3cnc(-c4cncc(NC5CNC5)n4)cc32)nc1 [Compound 308, N-(azetidin-3-yl)-6-(1-(pyridin-2-yl)-1H-pyrazolo[4,3-c]pyridin-6-yl)pyrazin-2-amine]",0.4,4.31,–,–
"Cc1cncc(-c2cc3c(cn2)cnn3-c2cccc(OC3CCCC(N)C3)n2)n1 (stereo not drawn) [Compound 310, 3-(6-(6-(6-methylpyrazin-2-yl)-1H-pyrazolo[4,3-c]pyridin-1-yl)pyridin-2-yloxy)cyclohexanamine]",1.63,–,1.64,–

# Now from value to molecule:
Ki (PIM3) [nM],Ki (PIM2) [nM],Ki (PIM1; [1]) [nM],Ki (PIM1) [nM],Structure (SMILES)
–,12.1,0.623,–,"Cn1cc(-c2cc3c(cn2)cnn3-c2cccc(N3CCNCC3)n2)cn1 [Compound 102, 6-(1-methyl-1H-pyrazol-4-yl)-1-(6-(piperazin-1-yl)pyridin-2-yl)-1H-pyrazolo[4,3-c]pyridine]"
0.181,9.11,0.165,–,"c1cc(N2CCNCC2)nc(-n2ncc3cnc(-c4cncc(C5CC5)c4)cc32)c1 [Compound 111, 6-(5-cyclopropylpyridin-3-yl)-1-(6-(piperazin-1-yl)pyridin-2-yl)-1H-pyrazolo[4,3-c]pyridine]"
0.186,10.1,0.107,–,"C[C@H]1CN(c2cccc(-n3ncc4cnc(-c5cncc(C6COC6)c5)cc43)n2)CCN1 [Compound 113, (S)-1-(6-(3-methylpiperazin-1-yl)pyridin-2-yl)-6-(5-(oxetan-3-yl)pyridin-3-yl)-1H-pyrazolo[4,3-c]pyridine]"
0.652,16.9,0.479,–,"c1cc(N2CCNCC2)nc(-n2ncc3cnc(-c4cncc(C5COC5)c4)cc32)c1 [Compound 114, 6-(5-(oxetan-3-yl)pyridin-3-yl)-1-(6-(piperazin-1-yl)pyridin-2-yl)-1H-pyrazolo[4,3-c]pyridine]"
0.306,14.9,0.155,–,"OC1CNCCN(c2cccc(-n3ncc4cnc(-c5cncc(C6CC6)c5)cc43)n2)C1 (stereo not drawn) [Compound 115, 1-(6-(6-(5-cyclopropylpyridin-3-yl)-1H-pyrazolo[4,3-c]pyridin-1-yl)pyridin-2-yl)-1,4-diazepan-6-ol]"
0.405,27.6,0.294,–,"OC1CNCCN(c2cccc(-n3ncc4cnc(-c5cncc(C6COC6)c5)cc43)n2)C1 (stereo not drawn) [Compound 116, 1-(6-(6-(5-(oxetan-3-yl)pyridin-3-yl)-1H-pyrazolo[4,3-c]pyridin-1-yl)pyridin-2-yl)-1,4-diazepan-6-ol]"
0.117,9.04,0.08,–,"c1cc(N2CCCNCC2)nc(-n2ncc3cnc(-c4cncc(C5COC5)c4)cc32)c1 [Compound 118, 1-(6-(1,4-diazepan-1-yl)pyridin-2-yl)-6-(5-(oxetan-3-yl)pyridin-3-yl)-1H-pyrazolo[4,3-c]pyridine]"
0.307,8.49,0.426,–,"Cc1cc(-c2cc3c(cn2)cnn3-c2cccc(N3CCNCC3)n2)sn1 [Compound 119, 3-methyl-5-[1-(6-piperazin-1-yl-2-pyridyl)pyrazolo[4,3-c]pyridin-6-yl]isothiazole]"
2.46,28.3,3.47,–,"CCn1cc(-c2cc3c(cn2)cnn3-c2cccc(N3CCC(O)CC3)n2)cn1 [Compound 129, 1-(6-(6-(1-ethyl-1H-pyrazol-4-yl)-1H-pyrazolo[4,3-c]pyridin-1-yl)pyridin-2-yl)piperidin-4-ol]"
0.87,19.3,1.56,–,"CCn1cc(-c2cc3c(cn2)cnn3-c2cccc(N3CCC(N)CC3)n2)cn1 [Compound 132, 1-(6-(6-(1-ethyl-1H-pyrazol-4-yl)-1H-pyrazolo[4,3-c]pyridin-1-yl)pyridin-2-yl)piperidin-4-amine]"
0.458,15,0.802,–,"CC[C@@H]1CN(c2cccc(-n3ncc4cnc(-c5cnn(CC)c5)cc43)n2)CCN1 [Compound 142, (R)-6-(1-ethyl-1H-pyrazol-4-yl)-1-(6-(3-ethylpiperazin-1-yl)pyridin-2-yl)-1H-pyrazolo[4,3-c]pyridine]"
–,149,11.5,–,"Cn1cc(-c2cc3c(cn2)cnn3-c2cccc(N3CC4(CNC4)C3)n2)cn1 [Compound 268, 1-(6-(2,6-Diazaspiro[3.3]heptan-2-yl)pyridin-2-yl)-6-(1-methyl-1H-pyrazol-4-yl)-1H-pyrazolo[4,3-c]pyridine]"
